Measurements taken from article PMC9481312, “In Vitro α-Glycosidase Inhibition and In Silico Studies of Flavonoids Isolated from Pistacia integerrima Stew ex Brandis” (BioMed Research International, 2022).

Target: T1, α-glycosidase (intestinal α-glycosidase; α-glucosidase)
T1 construct: gene Si; crude native extract: supernatant of sonicated rat intestinal acetone powder in saline (100:1 w/v); not purified, isoenzyme not identified
Experiment: colorimetric p-nitrophenyl release, 96-well plate
Type: biochemical
Conditions: 5 mM p-nitrophenyl-α-D-glucopyranoside, 100 mM phosphate, pH 6.8, DMSO, 5 min preincubation; crude rat intestinal extract
Description: colorimetric p-nitrophenyl release, 96-well plate on α-glycosidase (intestinal α-glycosidase; α-glucosidase)

| SMILES | IC50 |
| --- | --- |
| COc1cc(O)c2c(c1)O[C@H](c1ccc(O)cc1)CC2=O [compound 4, sakuranetin] | 287.3 ± 2.09 µM |
| C[C@H]1O[C@H](O[C@H]2[C@H](O)[C@@H](O)[C@@H](O[C@H]3[C@H](O)[C@@H](O)C(O)O[C@@H]3CO)O[C@@H]2CO)[C@H](O)[C@@H](O)[C@@H]1N[C@H]1C=C(CO)[C@@H](O)[C@H](O)[C@H]1O (stereo partly shown) [acarbose, reference compound] | 841 ± 1.34 µM |
| COc1cc(O)c2c(c1)OC(c1ccc(O)cc1)C(O)C2=O (stereo not shown) [compound 3, 3,5,4′-trihydroxy,7-methoxy-flavanone] | 790 ± 2.31 µM |
| O=C1c2c(O)cc(O)cc2O[C@H](c2ccc(O)cc2)[C@H]1O [compound 1, 3,5,7,4′-tetrahydroxy-flavanone] | 183.2 ± 1.22 µM |
| O=C1C[C@@H](c2ccc(O)cc2)Oc2cc(O)cc(O)c21 [compound 2, naringenin] | 754.2 ± 1.76 µM |

The next lines start with the values.

| IC50 | SMILES |
| --- | --- |
| 743.1 ± 1.32 µM | COc1c(O)cc2oc(-c3ccc(O)c(O)c3)c(O)c(=O)c2c1O [compound 6, patuletin] |
| 826.4 ± 1.87 µM | COc1cc(-c2oc3cc(O)c(OC)c(O)c3c(=O)c2O)ccc1O [compound 5, spinacetin] |
